In US8592181B2, “Brazzein variant having higher sweetness and method for preparing multi-variant” (Chung-Ang University Industry-Academy Cooperation Foundation, priority 2009, dated 2013):

Experiments:
sweetness = details: related art; cited from earlier work
[1] = Thermal stability: heated at 80° C. for 4 hours in 50 mM Tris-HCl (pH 8.0), sweetness change level measured by the 20 subjects; format: physicochemical; details: primary variants
Description: On the basis of the results measured in Example 3-1, 100 mg of each of the brazzein variants having high sweetness, that is, brazzein(H30K) set forth in SEQ ID NO: 99, brazzein(H30R) set forth in SEQ ID NO: 100, brazzein(E35D) set forth in SEQ ID NO: 109, brazzein(E40A) set forth in SEQ ID NO: 113, brazzein(E40A) set forth in SEQ ID NO: 113, brazzein(E40D) set forth in SEQ ID NO: 114, brazzein(E40K) set forth in SEQ ID NO: 115, brazzein(E40H) set forth in SEQ ID NO: 116 and brazzein(E40R) set forth in SEQ ID NO: 117, was dissolved in a 50 mM Tris-HCl (pH 8.0) solution, and heated at 80° C. for 4 hours. Based on the sweetness measured before the heat treatment of the respective primary brazzein variants, a sweetness change level of each primary brazzein variant was then measured by the 20 subjects in the same manner as in Example 3-1.
Also, the brazzein multi-variants were measured for thermal stability in the same manner as in Example 3-2. […] From the high performance liquid chromatography analysis of the quaternary variants out of the brazzein multi-variants, it was confirmed that the quaternary variants maintained their constant thermal stability in spite of the fact that the quaternary variants had different structural properties than the minor-type brazzein protein.

human sense of taste = test: Sweetness measured by human sense of taste (20 trained subjects, minimum concentration at which sweetness is first sensed); format: in vivo; details: for Multiples of increased sweetness to minor-type brazzein / Minimum stimulation level in which one senses sweetness for first time: primary brazzein variants; for Multiples of increased sweetness to minor-type brazzein: relative to minor-type brazzein; for Minimum stimulation level in which one senses sweetness for first time: 20 trained subjects; for Sweetness ratios of sucrose (1 g/100 ml) to primary brazzein variants (minor-type brazzein: 2000): relative to 1 g/100 ml sucrose threshold
Description: Since the recombinant brazzein according to the present invention is not a sucrose-based compound having a cyclic ring, the sweetness of the recombinant brazzein was not measured using a saccharometer. Therefore, the activity of the recombinant brazzein was measured using the human sense of taste. Sugar content measurement was performed on 20 subjects who were trained to feel substantially the same minimum concentration of sucrose in which they could sense sweetness using a sucrose solution. That is, a concentration of each brazzein variant in which the subjects could sense sweetness for the first time was measured. Also, a sweetness ratio of the sucrose solution to the wild-type brazzein was 1 g/100 ml, which was a minimum stimulation level in which the subjects could sense sweetness. Also, a sweetness ratio of the minor-type brazzein protein to the wild-type brazzein was 500 μg/100 ml, which was a minimum stimulation level in which the subjects could sense sweetness. Therefore, the sweetness was calculated using the sweetness ratios (That is, 1/0.0005=2000 for the minor-type brazzein).
Also, the brazzein multi-variants were measured for activity (sweetness) in the same manner as in Example 3-1.

Row | Compound | Sweetness relative to sugar (sucrose) (sweetness) | Thermal stability (relative activity after heat treatment) [1] | Multiples of increased sweetness to minor-type brazzein (human sense of taste) | Minimum stimulation level in which one senses sweetness for first time (human sense of taste) [μg/100 ml] | Sweetness ratios of sucrose (1 g/100 ml) to primary brazzein variants (minor-type brazzein: 2000) (human sense of taste)
1 | O=C1NS(=O)(=O)c2ccccc21 [saccharin] | approximately 500 times | – | – | – | –
2 | C=C1C[C@@]23CC[C@H]4[C@@](C)(CCC[C@@]4(C)C(=O)O[C@@H]4O[C@H](CO)[C@@H](O)[C@H](O)[C@H]4O)[C@@H]2CC[C@]1(O[C@@H]1O[C@H](CO)[C@@H](O)[C@H](O)[C@H]1O[C@@H]1O[C@H](CO)[C@@H](O)[C@H](O)[C@H]1O)C3 [stevioside] | 200 times | – | – | – | –
3 | E35D: primary brazzein variant: Glu at position 35 of minor-type brazzein substituted with Asp (DKCKKVYENYPVSKCQLANQCNYDCKLRKHARSGDCFYDEKRNLQCICDYCEY; Brazzein(E35D)) [Brazzein E35D] | – | maintained their thermal stabilities | 3.3 | 150 | 6,600
4 | E40A: primary brazzein variant: Glu at position 40 of minor-type brazzein substituted with Ala (DKCKKVYENYPVSKCQLANQCNYDCKLRKHARSGECFYDAKRNLQCICDYCEY; Brazzein(E40A)) [Brazzein E40A] | – | maintained their thermal stabilities | 3.3 | 150 | 6,600
5 | E40D: primary brazzein variant: Glu at position 40 of minor-type brazzein substituted with Asp (DKCKKVYENYPVSKCQLANQCNYDCKLRKHARSGECFYDDKRNLQCICDYCEY; Brazzein(E40D)) [Brazzein E40D] | – | maintained their thermal stabilities | – | 150 | 6,600
6 | E40K: primary brazzein variant: Glu at position 40 of minor-type brazzein substituted with Lys (DKCKKVYENYPVSKCQLANQCNYDCKLRKHARSGECFYDKKRNLQCICDYCEY; Brazzein(E40K)) [Brazzein E40K] | – | maintained their thermal stabilities | 3.3 | 150 | 6,600
7 | E40R: primary brazzein variant: Glu at position 40 of minor-type brazzein substituted with Arg (DKCKKVYENYPVSKCQLANQCNYDCKLRKHARSGECFYDRKRNLQCICDYCEY; Brazzein(E40R)) [Brazzein E40R] | – | maintained their thermal stabilities | 2 | 250 | 4,000
8 | H30R: primary brazzein variant: His at position 30 of minor-type brazzein substituted with Arg (DKCKKVYENYPVSKCQLANQCNYDCKLRKRARSGECFYDEKRNLQCICDYCEY; Brazzein(H30R)) [Brazzein H30R] | – | maintained their thermal stabilities | 3.3 | 150 | 6,600
